Test results as given in PubChem BioAssay AID1963421 (Molecular Pharmacology Branch, DTP, NCI, 2024).

Tested on: 519858-162-T-J1-PDC complex spheroid growth, % test/control
Test: Anticancer human tumor 519858-162-T-J1-PDC patient-derived colon adenocarcinoma cell line growth inhibition [Asc]
Conditions: for IC50: curve of first compound; for viability, T/C: stronger effect = lower value; active = viability on the fitted dose curve at most 10% of control; inactive = the rest
How it was run: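 Spheroid model: tumor line + HUVEC + hMSC. Single agents and combinations; top conc. at/near clinical Cmax (10 microM if undetermined), half-log dilutions. DMSO stocks at 800-fold test concentration.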

[1] = second compound 0.0316 µM, first compound 0.00316 µM
[2] = second compound 0.0316 µM, first compound 0.01 µM
[3] = second compound 0.0316 µM, first compound 0.0316 µM
[4] = second compound 0.0316 µM, first compound 0.1 µM
[5] = second compound 0.0316 µM, first compound 0.316 µM
[6] = second compound 0.0316 µM, first compound 1 µM
[7] = second compound 0.1 µM, first compound 0.00316 µM
[8] = second compound 0.1 µM, first compound 0.01 µM
[9] = second compound 0.1 µM, first compound 0.0316 µM
[10] = second compound 0.1 µM, first compound 0.1 µM
[11] = second compound 0.1 µM, first compound 0.316 µM
[12] = second compound 0.1 µM, first compound 1 µM
[13] = second compound 0.316 µM, first compound 0.00316 µM
[14] = second compound 0.316 µM, first compound 0.01 µM
[15] = second compound 0.316 µM, first compound 0.0316 µM
[16] = second compound 0.316 µM, first compound 0.1 µM
[17] = second compound 0.316 µM, first compound 0.316 µM
[18] = second compound 0.316 µM, first compound 1 µM
[19] = second compound 1 µM, first compound 0.00316 µM
[20] = second compound 1 µM, first compound 0.01 µM
[21] = second compound 1 µM, first compound 0.0316 µM
[22] = second compound 1 µM, first compound 0.1 µM
[23] = second compound 1 µM, first compound 0.316 µM
[24] = second compound 1 µM, first compound 1 µM
[25] = second compound 3.16 µM, first compound 0.00316 µM
[26] = second compound 3.16 µM, first compound 0.01 µM
[27] = second compound 3.16 µM, first compound 0.0316 µM
[28] = second compound 3.16 µM, first compound 0.1 µM
[29] = second compound 3.16 µM, first compound 0.316 µM
[30] = second compound 3.16 µM, first compound 1 µM
[31] = second compound 10 µM, first compound 0.00316 µM
[32] = second compound 10 µM, first compound 0.01 µM
[33] = second compound 10 µM, first compound 0.0316 µM
[34] = second compound 10 µM, first compound 0.1 µM
[35] = second compound 10 µM, first compound 0.316 µM
[36] = second compound 10 µM, first compound 1 µM
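Also: seven day drug exposure begun three days after spheroid seeding.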
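For viability, T/C in this document: 100% = DMSO vehicle wells and lower values mean less viable spheroid.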

CCN1CCN(Cc2ccc(Nc3ncc(F)c(-c4cc(F)c5nc(C)n(C(C)C)c5c4)n3)nc2)CC1 + Cc1c(S(C)(=O)=O)c(-c2cc(F)cc(N3CCN(c4ccc(NS(=O)(=O)c5ccc(NC(CCN6CCC(C(=O)OCCCP(=O)(O)O)CC6)CSc6ccccc6)c(S(=O)(=O)C(F)(F)F)c5)cc4)CC3)c2)c(-c2ccc(Cl)cc2)n1C(C)C
inactive: viability, T/C [1] 124% | viability, T/C [2] 106% | viability, T/C [3] 62.9% | viability, T/C [4] 92% | viability, T/C [5] 84.8% | viability, T/C [6] 72.3% | viability, T/C [7] 109% | viability, T/C [8] 95.8% | viability, T/C [9] 89.2% | viability, T/C [10] 86.3% | viability, T/C [11] 79.5% | viability, T/C [12] 112% | viability, T/C [13] 119% | viability, T/C [14] 109% | viability, T/C [15] 98.3% | viability, T/C [16] 60.5% | viability, T/C [17] 95.6% | viability, T/C [18] 69.7% | viability, T/C [19] 87.4% | viability, T/C [20] 76% | viability, T/C [21] 62.6% | viability, T/C [22] 79% | viability, T/C [23] 75.2% | viability, T/C [24] 56.4% | viability, T/C [25] 90.5% | viability, T/C [26] 68.6% | viability, T/C [27] 101% | viability, T/C [28] 73.7% | viability, T/C [29] 67% | viability, T/C [30] 57.2% | viability, T/C [31] 77.7% | viability, T/C [32] 61.1% | viability, T/C [33] 62.6% | viability, T/C [34] 72.8% | viability, T/C [35] 63.3% | viability, T/C [36] 68%
> 1000 nM: IC50 (second compound 0.0316 µM) | IC50 (second compound 0.1 µM) | IC50 (second compound 0.316 µM) | IC50 (second compound 1 µM) | IC50 (second compound 3.16 µM) | IC50 (second compound 10 µM)

Cn1ncnc1[C@H]1c2n[nH]c(=O)c3cc(F)cc(c23)N[C@@H]1c1ccc(F)cc1 + Cc1c(S(C)(=O)=O)c(-c2cc(F)cc(N3CCN(c4ccc(NS(=O)(=O)c5ccc(NC(CCN6CCC(C(=O)OCCCP(=O)(O)O)CC6)CSc6ccccc6)c(S(=O)(=O)C(F)(F)F)c5)cc4)CC3)c2)c(-c2ccc(Cl)cc2)n1C(C)C
inactive: viability, T/C (second compound 0.0316 µM, first compound 0.000316 µM) 119% | viability, T/C (second compound 0.0316 µM, first compound 0.001 µM) 120% | viability, T/C [1] 73% | viability, T/C [2] 100% | viability, T/C [3] 69% | viability, T/C [4] 95.4% | viability, T/C (second compound 0.1 µM, first compound 0.000316 µM) 121% | viability, T/C (second compound 0.1 µM, first compound 0.001 µM) 78.9% | viability, T/C [7] 85.8% | viability, T/C [8] 123% | viability, T/C [9] 76.6% | viability, T/C [10] 54.9% | viability, T/C (second compound 0.316 µM, first compound 0.000316 µM) 115% | viability, T/C (second compound 0.316 µM, first compound 0.001 µM) 101% | viability, T/C [13] 61.3% | viability, T/C [14] 92.9% | viability, T/C [15] 83.7% | viability, T/C [16] 89.4% | viability, T/C (second compound 1 µM, first compound 0.000316 µM) 88.8% | viability, T/C (second compound 1 µM, first compound 0.001 µM) 76.5% | viability, T/C [19] 131% | viability, T/C [20] 60.8% | viability, T/C [21] 74.6% | viability, T/C [22] 90.5% | viability, T/C (second compound 3.16 µM, first compound 0.000316 µM) 104% | viability, T/C (second compound 3.16 µM, first compound 0.001 µM) 87.1% | viability, T/C [25] 83.7% | viability, T/C [26] 75.2% | viability, T/C [27] 113% | viability, T/C [28] 79.1% | viability, T/C (second compound 10 µM, first compound 0.000316 µM) 69.5% | viability, T/C (second compound 10 µM, first compound 0.001 µM) 95.7% | viability, T/C [31] 63.2% | viability, T/C [32] 49.6% | viability, T/C [33] 61.3% | viability, T/C [34] 61.4%
> 100 nM: IC50 (second compound 0.0316 µM) | IC50 (second compound 0.1 µM) | IC50 (second compound 0.316 µM) | IC50 (second compound 1 µM) | IC50 (second compound 3.16 µM)
100 nM: IC50 (second compound 10 µM)

O=C(c1cc(Cc2n[nH]c(=O)c3ccccc23)ccc1F)N1CCN(C(=O)C2CC2)CC1 + Cc1c(S(C)(=O)=O)c(-c2cc(F)cc(N3CCN(c4ccc(NS(=O)(=O)c5ccc(NC(CCN6CCC(C(=O)OCCCP(=O)(O)O)CC6)CSc6ccccc6)c(S(=O)(=O)C(F)(F)F)c5)cc4)CC3)c2)c(-c2ccc(Cl)cc2)n1C(C)C
inactive: viability, T/C [3] 68.1% | viability, T/C [4] 92.3% | viability, T/C [5] 77.4% | viability, T/C [6] 104% | viability, T/C (second compound 0.0316 µM, first compound 3.16 µM) 91.5% | viability, T/C (second compound 0.0316 µM, first compound 10 µM) 68.3% | viability, T/C [9] 92.1% | viability, T/C [10] 107% | viability, T/C [11] 102% | viability, T/C [12] 75.8% | viability, T/C (second compound 0.1 µM, first compound 3.16 µM) 58.7% | viability, T/C (second compound 0.1 µM, first compound 10 µM) 78.3% | viability, T/C [15] 100% | viability, T/C [16] 129% | viability, T/C [17] 77.8% | viability, T/C [18] 87.2% | viability, T/C (second compound 0.316 µM, first compound 3.16 µM) 101% | viability, T/C (second compound 0.316 µM, first compound 10 µM) 62.9% | viability, T/C [21] 95.4% | viability, T/C [22] 100% | viability, T/C [23] 71.6% | viability, T/C [24] 73.8% | viability, T/C (second compound 1 µM, first compound 3.16 µM) 93.1% | viability, T/C (second compound 1 µM, first compound 10 µM) 100% | viability, T/C [27] 76.5% | viability, T/C [28] 94% | viability, T/C [29] 74.8% | viability, T/C [30] 84.1% | viability, T/C (second compound 3.16 µM, first compound 3.16 µM) 70.7% | viability, T/C (second compound 3.16 µM, first compound 10 µM) 86.6% | viability, T/C [33] 71.6% | viability, T/C [34] 101% | viability, T/C [35] 58.2% | viability, T/C [36] 72.9% | viability, T/C (second compound 10 µM, first compound 3.16 µM) 65.2% | viability, T/C (second compound 10 µM, first compound 10 µM) 57.6%
> 10000 nM: IC50 (second compound 0.0316 µM) | IC50 (second compound 0.1 µM) | IC50 (second compound 0.316 µM) | IC50 (second compound 1 µM) | IC50 (second compound 3.16 µM) | IC50 (second compound 10 µM)

O=C(c1ccc(F)c(F)c1Nc1ccc(I)cc1F)N1CC(O)([C@@H]2CCCCN2)C1 + Cc1c(S(C)(=O)=O)c(-c2cc(F)cc(N3CCN(c4ccc(NS(=O)(=O)c5ccc(NC(CCN6CCC(C(=O)OCCCP(=O)(O)O)CC6)CSc6ccccc6)c(S(=O)(=O)C(F)(F)F)c5)cc4)CC3)c2)c(-c2ccc(Cl)cc2)n1C(C)C
122 nM: IC50 (second compound 10 µM)
283 nM: IC50 (second compound 0.0316 µM)
235 nM: IC50 (second compound 3.16 µM)
inactive: viability, T/C [1] 113% | viability, T/C [2] 84.2% | viability, T/C [3] 78.6% | viability, T/C [4] 115% | viability, T/C [5] 44.9% | viability, T/C [6] 14.5% | viability, T/C [7] 93.6% | viability, T/C [8] 91.4% | viability, T/C [9] 76.5% | viability, T/C [10] 50.8% | viability, T/C [11] 54.6% | viability, T/C [12] 18.9% | viability, T/C [13] 81.8% | viability, T/C [14] 92.2% | viability, T/C [15] 110% | viability, T/C [16] 63.8% | viability, T/C [17] 39.2% | viability, T/C [18] 24.1% | viability, T/C [19] 108% | viability, T/C [20] 92.1% | viability, T/C [21] 72.5% | viability, T/C [22] 54.7% | viability, T/C [23] 66% | viability, T/C [24] 19.5% | viability, T/C [25] 61.8% | viability, T/C [26] 82.7% | viability, T/C [27] 60.3% | viability, T/C [28] 72% | viability, T/C [29] 43.3% | viability, T/C [30] 12.9% | viability, T/C [31] 75.6% | viability, T/C [32] 59.8% | viability, T/C [33] 47.1% | viability, T/C [34] 60.5% | viability, T/C [35] 39.3% | viability, T/C [36] 9.69%
164 nM: IC50 (second compound 0.316 µM)
212 nM: IC50 (second compound 0.1 µM)
232 nM: IC50 (second compound 1 µM)
